Columns and labels:
Experiment in all cases: relative viability (nuclei count vs DMSO), 5 days (fraction); higher = more cells survive
NCI-H727 = test system: NCI-H727
How it was run: (§1)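 Five library-drug doses in √10 steps were combined with a fixed anchor-drug dose, or a single drug was given alone, by pin tool to lung cancer cell lines in 1536-well plates the day after seeding. Nuclei were stained and counted after 5 days. Relative viability is the nuclei count in treated wells over that in vehicle wells, taken as the median of duplicate plates.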

NCI-H1651 = test system: NCI-H1651
How it was run: as §1

NCI-H647 = test system: NCI-H647
How it was run: as §1

NCI-H1437 = test system: NCI-H1437
How it was run: as §1

EKVX = test system: EKVX
How it was run: as §1

HCC-15 = test system: HCC-15
How it was run: as §1

HCC-44 = test system: HCC-44
How it was run: as §1

COR-L23 = test system: COR-L23
How it was run: as §1

NCI-H2087 = test system: NCI-H2087
How it was run: as §1

EPLC-272H = test system: EPLC-272H
How it was run: as §1

UMC-11 = test system: UMC-11
How it was run: as §1

ABC-1 = test system: ABC-1
How it was run: as §1

LCLC-103H = test system: LCLC-103H
How it was run: as §1

NCI-H1792 = test system: NCI-H1792
How it was run: as §1

HCC-827 = test system: HCC-827
How it was run: as §1

NCI-H520 = test system: NCI-H520
How it was run: as §1

H3255 = test system: H3255
How it was run: as §1

201T = test system: 201T
How it was run: as §1

NCI-H661 = test system: NCI-H661
How it was run: as §1

NCI-H1975 = test system: NCI-H1975
How it was run: as §1

NCI-H1650 = test system: NCI-H1650
How it was run: as §1

NCI-H358 = test system: NCI-H358
How it was run: as §1

COR-L 105 = test system: COR-L 105
How it was run: as §1

## Cc1cnc(-c2cnc(NCCNc3ccc(C#N)cn3)nc2-c2ccc(Cl)cc2Cl)[nH]1 + N=C(N)NC(=N)NCCc1ccccc1 [Phenformin] (partner 250 µM)
NCI-H727; first compound 0.08 µM
  relative viability: 0.488
NCI-H727; first compound 0.253 µM
  relative viability: 0.478
NCI-H727; first compound 0.8 µM
  relative viability: 0.478
NCI-H727; first compound 2.53 µM
  relative viability: 0.597
NCI-H1651; first compound 0.08 µM
  relative viability: 0.383
NCI-H1651; first compound 0.253 µM
  relative viability: 0.494
NCI-H1651; first compound 0.8 µM
  relative viability: 0.32
NCI-H1651; first compound 2.53 µM
  relative viability: 0.324
NCI-H647; first compound 0.08 µM
  relative viability: 0.598
NCI-H647; first compound 0.253 µM
  relative viability: 0.362
NCI-H647; first compound 0.8 µM
  relative viability: 0.391
NCI-H647; first compound 2.53 µM
  relative viability: 0.28
NCI-H1437; first compound 0.08 µM
  relative viability: 0.304
NCI-H1437; first compound 0.253 µM
  relative viability: 0.357
NCI-H1437; first compound 0.8 µM
  relative viability: 0.297
NCI-H1437; first compound 2.53 µM
  relative viability: 0.295
EKVX; first compound 0.08 µM
  relative viability: 0.192
EKVX; first compound 0.253 µM
  relative viability: 0.226
EKVX; first compound 0.8 µM
  relative viability: 0.196
EKVX; first compound 2.53 µM
  relative viability: 0.222
HCC-15; first compound 0.08 µM
  relative viability: 0.462
HCC-15; first compound 0.253 µM
  relative viability: 0.415
HCC-15; first compound 0.8 µM
  relative viability: 0.471
HCC-15; first compound 2.53 µM
  relative viability: 0.412
HCC-44; first compound 0.08 µM
  relative viability: 0.209
HCC-44; first compound 0.253 µM
  relative viability: 0.192
HCC-44; first compound 0.8 µM
  relative viability: 0.182
HCC-44; first compound 2.53 µM
  relative viability: 0.139
COR-L23; first compound 0.08 µM
  relative viability: 0.493
COR-L23; first compound 0.253 µM
  relative viability: 0.449
COR-L23; first compound 2.53 µM
  relative viability: 0.408
NCI-H2087; first compound 0.08 µM
  relative viability: 0.571
NCI-H2087; first compound 0.253 µM
  relative viability: 0.379
NCI-H2087; first compound 0.8 µM
  relative viability: 0.442
NCI-H2087; first compound 2.53 µM
  relative viability: 0.329
EPLC-272H; first compound 0.08 µM
  relative viability: 0.333
EPLC-272H; first compound 0.253 µM
  relative viability: 0.318
EPLC-272H; first compound 0.8 µM
  relative viability: 0.315
EPLC-272H; first compound 2.53 µM
  relative viability: 0.316
UMC-11; first compound 0.08 µM
  relative viability: 0.339
UMC-11; first compound 0.253 µM
  relative viability: 0.315
UMC-11; first compound 0.8 µM
  relative viability: 0.352
UMC-11; first compound 2.53 µM
  relative viability: 0.376
ABC-1; first compound 0.08 µM
  relative viability: 0.259
ABC-1; first compound 0.253 µM
  relative viability: 0.246
ABC-1; first compound 0.8 µM
  relative viability: 0.271
ABC-1; first compound 2.53 µM
  relative viability: 0.195
LCLC-103H; first compound 0.08 µM
  relative viability: 0.273
LCLC-103H; first compound 0.253 µM
  relative viability: 0.342
LCLC-103H; first compound 0.8 µM
  relative viability: 0.31
LCLC-103H; first compound 2.53 µM
  relative viability: 0.3
NCI-H1792; first compound 0.08 µM
  relative viability: 0.464
NCI-H1792; first compound 0.8 µM
  relative viability: 0.329
NCI-H1792; first compound 2.53 µM
  relative viability: 0.391
HCC-827; first compound 0.08 µM
  relative viability: 0.384
HCC-827; first compound 0.8 µM
  relative viability: 0.362
HCC-827; first compound 2.53 µM
  relative viability: 0.337
NCI-H520; first compound 0.08 µM
  relative viability: 0.861
NCI-H520; first compound 0.253 µM
  relative viability: 0.628
NCI-H520; first compound 0.8 µM
  relative viability: 0.542
NCI-H520; first compound 2.53 µM
  relative viability: 0.641
H3255; first compound 0.08 µM
  relative viability: 0.409
H3255; first compound 0.253 µM
  relative viability: 0.342
H3255; first compound 0.8 µM
  relative viability: 0.317
H3255; first compound 2.53 µM
  relative viability: 0.349
201T; first compound 0.08 µM
  relative viability: 0.469
201T; first compound 0.8 µM
  relative viability: 0.397
201T; first compound 2.53 µM
  relative viability: 0.473
NCI-H661; first compound 0.08 µM
  relative viability: 0.298
NCI-H661; first compound 0.253 µM
  relative viability: 0.295
NCI-H661; first compound 0.8 µM
  relative viability: 0.287
NCI-H661; first compound 2.53 µM
  relative viability: 0.314
NCI-H1975; first compound 0.08 µM
  relative viability: 0.418
NCI-H1975; first compound 0.253 µM
  relative viability: 0.405
NCI-H1975; first compound 0.8 µM
  relative viability: 0.384
NCI-H1975; first compound 2.53 µM
  relative viability: 0.286
NCI-H1650; first compound 0.08 µM
  relative viability: 0.497
NCI-H1650; first compound 0.253 µM
  relative viability: 0.428
NCI-H1650; first compound 0.8 µM
  relative viability: 0.384
NCI-H1650; first compound 2.53 µM
  relative viability: 0.276
NCI-H358; first compound 0.08 µM
  relative viability: 0.34
NCI-H358; first compound 0.253 µM
  relative viability: 0.307
NCI-H358; first compound 0.8 µM
  relative viability: 0.336
NCI-H358; first compound 2.53 µM
  relative viability: 0.299
COR-L 105; first compound 0.08 µM
  relative viability: 0.532
COR-L 105; first compound 0.253 µM
  relative viability: 0.487
COR-L 105; first compound 0.8 µM
  relative viability: 0.53
COR-L 105; first compound 2.53 µM
  relative viability: 0.357
